Laboratory results published in patent US7169573B2, “Method for monitoring coagulability and hypercoagulable states” (Oklahoma Medical Research Foundation, priority 2001, dated 2007).
“And” between values parts separate entries of the source, which are not always exact repeats. Equal values may be shown once.

Experiments:
[1] = test system: prothrombin fragment 1+2 (F1+2)
Experimental: Blood was taken before the start of anticoagulation and sEPCR levels were determined by ELISA over the course of their therapy. There were 3 patients with atrial fibrillation and one patient each with dilative cardiomyopathy, mitral valve disease, atrial fibrillation+stroke, and deep vein thrombosis (DVT).

[2] = cited from earlier work
[3] = cited from earlier work; remark: listed apart in the source
[4] = test system: soluble endothelial protein C receptor (sEPCR); assay: Plasma soluble EPCR level by monoclonal antibody-based ELISA in subjects on anticoagulant therapy; format: in vivo, human; conditions: for [sEPCR]: individual patients taking Sintrom, plasma, ELISA
Experimental: Soluble EPCR is generated in vitro by metalloproteinase activity induced by thrombin and some inflammatory mediators (Xu et al., 2000). Thus, the inventors chose to determine whether soluble EPCR levels reflected in vivo thrombin generation. To evaluate this, the soluble EPCR levels were determined in patients on oral anticoagulant therapy and compared with soluble EPCR levels found in a normal, apparently healthy adult population (FIGS. 1A and 1B). These samples were obtained from collaborators in France (Dr. M. Grimeaux, Serbio/Diagnostica Stago). The soluble EPCR levels are assayed using a monoclonal antibody-based enzyme-linked immunosorbent assay (ELISA) (U.S. Pat. No. 5,804,392, incorporated by reference herein). […] Previscan is a major oral anticoagulant used in France and Germany. […] The half-life for factor VII is only 3–5 hours, whereas that for prothrombin is 60–100 hrs.
To further evaluate the relationship between plasma sEPCR levels and anticoagulant therapy, samples were obtained from a normal adult population and from patients on intravenous unfractionated heparin therapy (FIG. 3). The data shown in FIGS. 3, 4A, 4B and 5 were obtained from samples contributed by a collaborator in Italy (Dr. Armando D'Angelo, Scientific Institute H. S. Rafeale, Milan, Italy).
Plasma was stored at −80° C. for determination of sEPCR levels by ELISA.

INR = INR (prothrombin time based) in patients on oral anticoagulant; format: in vivo, human; conditions: individual patients taking Sintrom, one plasma sample per line

4-hydroxycoumarin [Warfarin]
F1+2 level, % of initial values ([1]; healthy subjects, day 5 of Warfarin, P<0.05): 39% | F1+2 levels after initiation of Warfarin therapy ([1]; seven patients starting oral anticoagulation, FIG. 7): declined in most of the patients | intracranial bleeding, share of patients ([2]; during each year of therapy): 0.1–0.5% | major bleeding, share of people treated ([2]; during each year of therapy): 1–8% | Warfarin-induced skin necrosis, share of patients ([2]; in vivo): 0.01–0.1% | time to maximal blood levels ([3]; healthy volunteers, absorbed from the GI tract): 90 min | bioavailability ([3]; in vivo): excellent | onset ([3]; in vivo): 2 to 7 days | plasma sEPCR levels during Warfarin treatment period ([4]; 6 normal adult subjects, Warfarin 7 days, FIG. 4A): declined | lag time before sEPCR levels declined after initiation of Warfarin ([4]; normal adult subjects): 24 to 48 h | time after cessation of Warfarin until sEPCR levels began to increase ([4]; normal adult subjects): 24 to 48 h

O=C1c2ccccc2C(=O)C1c1ccc(F)cc1 [Previscan]
half-life (in words) ([3]; in vivo): long half-life (days)

CC(=O)CC(c1ccc([N+](=O)[O-])cc1)c1c(O)c2ccccc2oc1=O (centres unmarked) [Sintrom]
INR (INR): 2.0 and 2.6 and 3.3 and 3.6 | INR (INR; listed as SINTROM): 2.6 (2×) and 2.7 (2×) and 2.8 and 3.1 (2×) and 3.3 (2×) and 3.4 and 3.5 and 3.6 and 4.5 and >5.0 (4×) and 1.5 and 1.8 and 1.9 and 2.0 | half-life ([3]; Sintrom): ~8.5 h | [sEPCR] [4]: 369 ng/mL and 357 ng/mL and 198 ng/mL and 293 ng/mL | [sEPCR] ([4]; listed as SINTROM): 357 ng/ml and 131 ng/ml and 92 ng/ml and 127 ng/ml and 59 ng/ml and 61 ng/ml (2×) and 198 ng/ml and 171 ng/ml and 164 ng/ml and 56 ng/ml (2×) and 293 ng/ml and 172 ng/ml and 54 ng/ml and 94 ng/ml and 140 ng/ml and 135 ng/ml and 167 ng/ml and 369 ng/ml and 63 ng/ml
